Target: DYRK1B (human) (UniProt Q9Y463)
Assay: radiometric filter-binding kinase assay, Kinase HotSpot
Conditions: compound 0.5 µM; ATP 10 µM

DYRK1B (human), sequence (Q9Y463 whole entry, looked up): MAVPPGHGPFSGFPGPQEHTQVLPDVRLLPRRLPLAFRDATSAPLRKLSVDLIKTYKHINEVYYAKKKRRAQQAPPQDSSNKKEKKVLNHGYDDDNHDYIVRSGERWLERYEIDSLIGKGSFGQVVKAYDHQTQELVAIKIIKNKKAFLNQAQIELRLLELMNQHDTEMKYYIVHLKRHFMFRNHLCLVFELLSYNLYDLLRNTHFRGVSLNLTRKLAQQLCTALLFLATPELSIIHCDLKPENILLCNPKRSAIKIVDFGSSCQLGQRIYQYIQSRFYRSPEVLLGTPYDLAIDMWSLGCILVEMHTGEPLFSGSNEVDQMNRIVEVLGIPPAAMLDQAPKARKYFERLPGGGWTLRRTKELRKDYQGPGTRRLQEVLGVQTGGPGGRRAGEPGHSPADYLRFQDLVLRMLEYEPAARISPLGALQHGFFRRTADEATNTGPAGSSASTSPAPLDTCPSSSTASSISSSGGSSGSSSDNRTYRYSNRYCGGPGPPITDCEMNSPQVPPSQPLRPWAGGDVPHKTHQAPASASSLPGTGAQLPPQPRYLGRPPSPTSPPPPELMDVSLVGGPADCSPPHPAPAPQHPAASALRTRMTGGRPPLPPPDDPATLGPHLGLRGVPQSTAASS

Row | SMILES | residual activity
1 | O=C1Nc2cc(Br)ccc2/C1=C1/Nc2ccccc2/C1=N\O | 80.3%
2 | CC(C)(C)c1nc2c3ccc(F)cc3c3c(=O)[nH]ccc3c2[nH]1 | 88.2%
3 | O=C(NC(NC(=S)Nc1ccc(F)c([N+](=O)[O-])c1)C(Cl)(Cl)Cl)C(c1ccccc1)c1ccccc1 (stereo unspecified) | 103%
4 | CS(=O)c1ccc(-c2nc(-c3ccc(F)cc3)c(-c3ccncc3)[nH]2)cc1 (stereo unspecified) | 104%

Target: EPHA1 (human) (UniProt P21709)
Sequence (P21709 whole entry, looked up): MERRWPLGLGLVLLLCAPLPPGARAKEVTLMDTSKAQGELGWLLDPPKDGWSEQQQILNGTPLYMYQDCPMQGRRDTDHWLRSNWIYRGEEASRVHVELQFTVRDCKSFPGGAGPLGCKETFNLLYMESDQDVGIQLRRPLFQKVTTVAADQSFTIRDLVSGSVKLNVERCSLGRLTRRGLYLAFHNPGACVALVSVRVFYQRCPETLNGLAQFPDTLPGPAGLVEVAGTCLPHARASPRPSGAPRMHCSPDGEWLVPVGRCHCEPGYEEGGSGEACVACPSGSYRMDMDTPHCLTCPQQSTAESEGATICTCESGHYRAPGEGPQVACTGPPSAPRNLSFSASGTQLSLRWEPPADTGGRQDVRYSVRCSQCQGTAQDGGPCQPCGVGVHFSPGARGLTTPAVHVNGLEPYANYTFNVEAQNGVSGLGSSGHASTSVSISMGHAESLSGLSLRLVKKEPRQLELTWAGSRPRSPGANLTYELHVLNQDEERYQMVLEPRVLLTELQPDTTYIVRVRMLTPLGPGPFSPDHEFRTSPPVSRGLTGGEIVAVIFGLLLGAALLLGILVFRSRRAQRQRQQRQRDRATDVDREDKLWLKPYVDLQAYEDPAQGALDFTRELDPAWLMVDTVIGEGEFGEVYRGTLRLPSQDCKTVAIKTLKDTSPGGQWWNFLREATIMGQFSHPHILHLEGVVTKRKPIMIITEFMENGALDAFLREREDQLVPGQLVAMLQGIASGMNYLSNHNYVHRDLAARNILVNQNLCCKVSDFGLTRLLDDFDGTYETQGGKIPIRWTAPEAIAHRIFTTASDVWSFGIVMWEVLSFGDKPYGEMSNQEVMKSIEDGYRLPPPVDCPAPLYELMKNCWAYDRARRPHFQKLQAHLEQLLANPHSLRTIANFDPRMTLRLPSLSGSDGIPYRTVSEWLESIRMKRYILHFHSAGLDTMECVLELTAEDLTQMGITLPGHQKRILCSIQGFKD
Assay: as above
Conditions: compound 0.5 µM; ATP 10 µM

Row | SMILES | residual activity
5 | CSc1nc(-c2ccc(F)cc2)c(-c2ccnc(NC(C)c3ccccc3)c2)[nH]1 (stereo unspecified) | 89.8%
6 | O=C1Nc2cc(Br)ccc2/C1=C1/Nc2ccccc2/C1=N\O | 98.5%
7 | CC(C)(C)c1nc2c3ccc(F)cc3c3c(=O)[nH]ccc3c2[nH]1 | 80.5%
8 | O=C(NC(NC(=S)Nc1ccc(F)c([N+](=O)[O-])c1)C(Cl)(Cl)Cl)C(c1ccccc1)c1ccccc1 (stereo unspecified) | 88.1%
9 | CS(=O)c1ccc(-c2nc(-c3ccc(F)cc3)c(-c3ccncc3)[nH]2)cc1 (stereo unspecified) | 97%

Target: EPHB3 (human) (UniProt P54753)
Assay: as above
Conditions: compound 0.5 µM; ATP 10 µM

Row | SMILES | residual activity
10 | CSc1nc(-c2ccc(F)cc2)c(-c2ccnc(NC(C)c3ccccc3)c2)[nH]1 (stereo unspecified) | 94%
11 | O=C1Nc2cc(Br)ccc2/C1=C1/Nc2ccccc2/C1=N\O | 103%
12 | CC(C)(C)c1nc2c3ccc(F)cc3c3c(=O)[nH]ccc3c2[nH]1 | 87.1%
13 | O=C(NC(NC(=S)Nc1ccc(F)c([N+](=O)[O-])c1)C(Cl)(Cl)Cl)C(c1ccccc1)c1ccccc1 (stereo unspecified) | 104%
14 | CS(=O)c1ccc(-c2nc(-c3ccc(F)cc3)c(-c3ccncc3)[nH]2)cc1 (stereo unspecified) | 96.7%

Target: GRK6 (human) (UniProt P43250)
Sequence (P43250 whole entry, looked up): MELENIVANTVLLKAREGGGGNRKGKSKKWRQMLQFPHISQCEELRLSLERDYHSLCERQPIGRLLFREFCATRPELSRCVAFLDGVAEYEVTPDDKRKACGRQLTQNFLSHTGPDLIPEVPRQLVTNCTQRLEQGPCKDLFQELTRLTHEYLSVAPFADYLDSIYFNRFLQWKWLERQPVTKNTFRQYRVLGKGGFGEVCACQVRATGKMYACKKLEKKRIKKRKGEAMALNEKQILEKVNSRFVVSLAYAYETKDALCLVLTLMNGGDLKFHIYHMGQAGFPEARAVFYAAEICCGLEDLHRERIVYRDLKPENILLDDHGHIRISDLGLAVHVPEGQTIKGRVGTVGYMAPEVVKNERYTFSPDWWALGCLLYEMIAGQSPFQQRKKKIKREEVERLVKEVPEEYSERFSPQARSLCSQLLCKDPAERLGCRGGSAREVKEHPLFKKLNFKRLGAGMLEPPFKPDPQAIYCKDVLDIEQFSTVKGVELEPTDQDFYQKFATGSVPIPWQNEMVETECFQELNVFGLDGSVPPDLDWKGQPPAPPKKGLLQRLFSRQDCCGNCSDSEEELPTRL
Assay: as above
Conditions: compound 0.5 µM; ATP 10 µM

Row | SMILES | residual activity
15 | CSc1nc(-c2ccc(F)cc2)c(-c2ccnc(NC(C)c3ccccc3)c2)[nH]1 (stereo unspecified) | 79.8%
16 | O=C1Nc2cc(Br)ccc2/C1=C1/Nc2ccccc2/C1=N\O | 79.9%
17 | CC(C)(C)c1nc2c3ccc(F)cc3c3c(=O)[nH]ccc3c2[nH]1 | 48.2%
18 | O=C(NC(NC(=S)Nc1ccc(F)c([N+](=O)[O-])c1)C(Cl)(Cl)Cl)C(c1ccccc1)c1ccccc1 (stereo unspecified) | 97.5%
19 | CS(=O)c1ccc(-c2nc(-c3ccc(F)cc3)c(-c3ccncc3)[nH]2)cc1 (stereo unspecified) | 102%

Target: GSK3A (human) (UniProt P49840)
Sequence (P49840 whole entry, looked up): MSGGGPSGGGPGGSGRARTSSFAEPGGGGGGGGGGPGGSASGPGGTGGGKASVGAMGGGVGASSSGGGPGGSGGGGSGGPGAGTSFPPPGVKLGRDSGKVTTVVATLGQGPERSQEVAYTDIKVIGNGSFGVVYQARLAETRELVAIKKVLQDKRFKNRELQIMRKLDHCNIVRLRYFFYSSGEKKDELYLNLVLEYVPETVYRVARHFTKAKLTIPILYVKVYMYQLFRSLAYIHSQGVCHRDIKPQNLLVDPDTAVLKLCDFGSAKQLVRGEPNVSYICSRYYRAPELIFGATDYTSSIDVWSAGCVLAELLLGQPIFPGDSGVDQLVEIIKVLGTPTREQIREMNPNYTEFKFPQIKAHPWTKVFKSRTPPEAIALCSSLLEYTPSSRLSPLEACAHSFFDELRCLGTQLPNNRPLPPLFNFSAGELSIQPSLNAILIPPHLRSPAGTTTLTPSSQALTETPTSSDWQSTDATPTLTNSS
Assay: as above
Conditions: compound 0.5 µM; ATP 10 µM

Row | SMILES | residual activity
20 | CSc1nc(-c2ccc(F)cc2)c(-c2ccnc(NC(C)c3ccccc3)c2)[nH]1 (stereo unspecified) | 94.1%
21 | O=C1Nc2cc(Br)ccc2/C1=C1/Nc2ccccc2/C1=N\O | 3.6%
22 | CC(C)(C)c1nc2c3ccc(F)cc3c3c(=O)[nH]ccc3c2[nH]1 | 121%
23 | O=C(NC(NC(=S)Nc1ccc(F)c([N+](=O)[O-])c1)C(Cl)(Cl)Cl)C(c1ccccc1)c1ccccc1 (stereo unspecified) | 105%
24 | CS(=O)c1ccc(-c2nc(-c3ccc(F)cc3)c(-c3ccncc3)[nH]2)cc1 (stereo unspecified) | 94.1%

Target: HIPK1 (human) (UniProt Q86Z02)
Assay: as above
Conditions: compound 0.5 µM; ATP 10 µM

Row | SMILES | residual activity
25 | CSc1nc(-c2ccc(F)cc2)c(-c2ccnc(NC(C)c3ccccc3)c2)[nH]1 (stereo unspecified) | 110%
26 | O=C1Nc2cc(Br)ccc2/C1=C1/Nc2ccccc2/C1=N\O | 103%
27 | CC(C)(C)c1nc2c3ccc(F)cc3c3c(=O)[nH]ccc3c2[nH]1 | 88.7%
28 | O=C(NC(NC(=S)Nc1ccc(F)c([N+](=O)[O-])c1)C(Cl)(Cl)Cl)C(c1ccccc1)c1ccccc1 (stereo unspecified) | 108%
29 | CS(=O)c1ccc(-c2nc(-c3ccc(F)cc3)c(-c3ccncc3)[nH]2)cc1 (stereo unspecified) | 104%

Target: IGF1R (human) (UniProt P08069)
Assay: as above
Conditions: compound 0.5 µM; ATP 10 µM

Row | SMILES | residual activity
30 | CSc1nc(-c2ccc(F)cc2)c(-c2ccnc(NC(C)c3ccccc3)c2)[nH]1 (stereo unspecified) | 101%
31 | O=C1Nc2cc(Br)ccc2/C1=C1/Nc2ccccc2/C1=N\O | 103%
32 | CC(C)(C)c1nc2c3ccc(F)cc3c3c(=O)[nH]ccc3c2[nH]1 | 91.3%
33 | O=C(NC(NC(=S)Nc1ccc(F)c([N+](=O)[O-])c1)C(Cl)(Cl)Cl)C(c1ccccc1)c1ccccc1 (stereo unspecified) | 93.7%
34 | CS(=O)c1ccc(-c2nc(-c3ccc(F)cc3)c(-c3ccncc3)[nH]2)cc1 (stereo unspecified) | 94.3%

Target: IKBKB (human) (UniProt O14920)
Sequence (O14920 whole entry, looked up): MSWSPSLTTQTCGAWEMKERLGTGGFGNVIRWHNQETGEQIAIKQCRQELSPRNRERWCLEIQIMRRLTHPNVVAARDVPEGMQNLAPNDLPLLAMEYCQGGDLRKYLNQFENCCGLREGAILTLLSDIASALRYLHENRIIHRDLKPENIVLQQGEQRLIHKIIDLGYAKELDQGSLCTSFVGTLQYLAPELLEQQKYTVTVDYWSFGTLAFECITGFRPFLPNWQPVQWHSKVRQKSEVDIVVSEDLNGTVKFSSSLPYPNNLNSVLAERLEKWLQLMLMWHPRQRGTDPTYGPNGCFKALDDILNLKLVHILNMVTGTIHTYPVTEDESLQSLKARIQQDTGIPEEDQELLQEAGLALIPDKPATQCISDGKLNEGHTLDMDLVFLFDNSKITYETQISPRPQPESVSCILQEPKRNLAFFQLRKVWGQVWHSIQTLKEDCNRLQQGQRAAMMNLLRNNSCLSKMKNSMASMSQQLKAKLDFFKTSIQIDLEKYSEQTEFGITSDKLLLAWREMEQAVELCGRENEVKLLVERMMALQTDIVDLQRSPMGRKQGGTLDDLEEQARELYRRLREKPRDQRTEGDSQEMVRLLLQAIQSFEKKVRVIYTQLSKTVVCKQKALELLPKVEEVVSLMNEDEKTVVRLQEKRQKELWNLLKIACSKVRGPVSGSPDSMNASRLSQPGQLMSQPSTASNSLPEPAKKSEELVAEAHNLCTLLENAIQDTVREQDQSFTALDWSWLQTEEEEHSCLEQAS
Assay: as above
Conditions: compound 0.5 µM; ATP 10 µM

Row | SMILES | residual activity
35 | O=C1Nc2cc(Br)ccc2/C1=C1/Nc2ccccc2/C1=N\O | 85.4%
36 | CC(C)(C)c1nc2c3ccc(F)cc3c3c(=O)[nH]ccc3c2[nH]1 | 52.1%
37 | O=C(NC(NC(=S)Nc1ccc(F)c([N+](=O)[O-])c1)C(Cl)(Cl)Cl)C(c1ccccc1)c1ccccc1 (stereo unspecified) | 102%
38 | CS(=O)c1ccc(-c2nc(-c3ccc(F)cc3)c(-c3ccncc3)[nH]2)cc1 (stereo unspecified) | 106%

Target: KDR (human) (UniProt P35968)
Sequence (P35968 whole entry, looked up): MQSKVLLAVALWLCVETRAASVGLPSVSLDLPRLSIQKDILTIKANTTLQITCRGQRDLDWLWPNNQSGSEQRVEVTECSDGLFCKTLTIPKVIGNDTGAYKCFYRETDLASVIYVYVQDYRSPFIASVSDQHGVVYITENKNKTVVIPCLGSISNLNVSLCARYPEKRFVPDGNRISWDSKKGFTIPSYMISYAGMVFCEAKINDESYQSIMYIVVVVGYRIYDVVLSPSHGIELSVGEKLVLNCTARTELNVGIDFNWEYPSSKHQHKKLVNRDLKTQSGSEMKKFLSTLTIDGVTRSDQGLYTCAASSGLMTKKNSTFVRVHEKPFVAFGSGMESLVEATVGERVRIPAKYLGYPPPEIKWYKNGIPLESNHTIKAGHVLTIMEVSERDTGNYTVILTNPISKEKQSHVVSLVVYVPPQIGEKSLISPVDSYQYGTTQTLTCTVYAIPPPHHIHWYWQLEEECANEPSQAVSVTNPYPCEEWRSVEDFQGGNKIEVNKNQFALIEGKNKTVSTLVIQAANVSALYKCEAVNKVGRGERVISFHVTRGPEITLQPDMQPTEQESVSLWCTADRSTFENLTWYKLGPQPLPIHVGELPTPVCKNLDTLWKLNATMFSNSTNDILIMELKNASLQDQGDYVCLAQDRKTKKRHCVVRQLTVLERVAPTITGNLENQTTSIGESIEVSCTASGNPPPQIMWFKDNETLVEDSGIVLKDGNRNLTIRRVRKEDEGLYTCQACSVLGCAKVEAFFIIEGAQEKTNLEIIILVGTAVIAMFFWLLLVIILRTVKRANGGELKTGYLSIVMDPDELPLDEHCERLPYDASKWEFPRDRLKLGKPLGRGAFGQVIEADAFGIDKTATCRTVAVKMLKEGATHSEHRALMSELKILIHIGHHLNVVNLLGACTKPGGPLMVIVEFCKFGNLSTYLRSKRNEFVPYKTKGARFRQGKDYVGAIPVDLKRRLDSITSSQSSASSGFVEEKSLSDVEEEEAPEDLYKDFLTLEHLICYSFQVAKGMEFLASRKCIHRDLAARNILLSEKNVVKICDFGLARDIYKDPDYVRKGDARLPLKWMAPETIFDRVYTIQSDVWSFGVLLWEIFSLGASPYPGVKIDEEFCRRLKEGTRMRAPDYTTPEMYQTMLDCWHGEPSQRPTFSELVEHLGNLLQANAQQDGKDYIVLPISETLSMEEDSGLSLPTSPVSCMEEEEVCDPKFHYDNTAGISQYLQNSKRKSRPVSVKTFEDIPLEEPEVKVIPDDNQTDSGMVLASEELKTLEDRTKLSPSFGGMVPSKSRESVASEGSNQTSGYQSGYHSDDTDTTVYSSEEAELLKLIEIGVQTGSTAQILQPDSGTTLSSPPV
Assay: as above
Conditions: compound 0.5 µM; ATP 10 µM

Row | SMILES | residual activity
39 | CSc1nc(-c2ccc(F)cc2)c(-c2ccnc(NC(C)c3ccccc3)c2)[nH]1 (stereo unspecified) | 83.5%
40 | O=C1Nc2cc(Br)ccc2/C1=C1/Nc2ccccc2/C1=N\O | 64.2%
41 | CC(C)(C)c1nc2c3ccc(F)cc3c3c(=O)[nH]ccc3c2[nH]1 | 103%
42 | O=C(NC(NC(=S)Nc1ccc(F)c([N+](=O)[O-])c1)C(Cl)(Cl)Cl)C(c1ccccc1)c1ccccc1 (stereo unspecified) | 92.5%
43 | CS(=O)c1ccc(-c2nc(-c3ccc(F)cc3)c(-c3ccncc3)[nH]2)cc1 (stereo unspecified) | 99.2%

Target: LRRK2 (human) (UniProt Q5S007)
Assay: as above
Conditions: compound 0.5 µM; ATP 10 µM

Row | SMILES | residual activity
44 | CSc1nc(-c2ccc(F)cc2)c(-c2ccnc(NC(C)c3ccccc3)c2)[nH]1 (stereo unspecified) | 100%
45 | O=C1Nc2cc(Br)ccc2/C1=C1/Nc2ccccc2/C1=N\O | 95.3%
46 | CC(C)(C)c1nc2c3ccc(F)cc3c3c(=O)[nH]ccc3c2[nH]1 | 47.5%
47 | O=C(NC(NC(=S)Nc1ccc(F)c([N+](=O)[O-])c1)C(Cl)(Cl)Cl)C(c1ccccc1)c1ccccc1 (stereo unspecified) | 99.3%
48 | CS(=O)c1ccc(-c2nc(-c3ccc(F)cc3)c(-c3ccncc3)[nH]2)cc1 (stereo unspecified) | 100%

Target: MAP2K2 (human) (UniProt P36507)
Assay: as above
Conditions: compound 0.5 µM; ATP 10 µM

Row | SMILES | residual activity
49 | CSc1nc(-c2ccc(F)cc2)c(-c2ccnc(NC(C)c3ccccc3)c2)[nH]1 (stereo unspecified) | 78.6%
50 | O=C1Nc2cc(Br)ccc2/C1=C1/Nc2ccccc2/C1=N\O | 92.4%
51 | CC(C)(C)c1nc2c3ccc(F)cc3c3c(=O)[nH]ccc3c2[nH]1 | 82.1%

Reference: the kinase profiling compilation of Christmann-Franck et al. (2016)
